Patent US8937072B2, “Substituted cyanoaniline compounds, preparation and use thereof” (Sinochem Corporation, priority 2011, dated 2015)

System: corn rust
Assay: Protectant activity in vivo (whole plant) against corn rust
Details: 6.25 mg/L
Summary of the method: (§1)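 Compound stock in organic solvent (≤5% v/v) diluted in water with 0.1% Tween-80 and sprayed onto whole host plants. Fungal inoculation 24 h later; humidity chamber then greenhouse as the pathogen requires. Activity rated visually, usually after 7 days.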

Row | SMILES | the protectant activity (%) against corn rust [%]
1 | N#Cc1c(Cl)c(Cl)c(Nc2cc(Cl)c(C(F)(F)F)cc2Cl)c(C#N)c1Cl [Compound B-52] | 70

Same assay, conditions: 25 mg/L

Row | SMILES | the protectant activity (%) against corn rust [%]
2 | N#Cc1c(Cl)c(Cl)c(Nc2cc(Cl)c(C(F)(F)F)cc2Cl)c(C#N)c1Cl [Compound B-52] | 98

Same assay, conditions: 100 mg/L

Row | SMILES | the protectant activity (%) against corn rust [%]
3 | N#Cc1c(Cl)c(Cl)c(Nc2cc(Cl)c(C(F)(F)F)cc2Cl)c(C#N)c1Cl [Compound B-52] | 100

Same assay, conditions: 400 mg/L

Row | SMILES | the protectant activity (%) against corn rust [%]
4 | N#Cc1c(Cl)c(Cl)c(Nc2cc(Cl)c(C(F)(F)F)cc2Cl)c(C#N)c1Cl [Compound B-52] | 100

Same assay, conditions: Zea mays, 168 h; 6.25 mg/L

Row | SMILES | pest or weed control at 6.25 µg/mL [%]
5 | Cc1ccc(Nc2c(Cl)c(Cl)c(C#N)c(Cl)c2C#N)cc1 [KC3] | 0
6 | N#Cc1c(Cl)c(Cl)c(C#N)c(Cl)c1Cl [STM-1] | 0
7 | Cc1cc(Nc2c(Cl)c(Cl)c(C#N)c(Cl)c2C#N)c(C)cc1Cl [KC6] | 0

Same assay, conditions: Zea mays, 168 h; 25 mg/L

Row | SMILES | pest or weed control at 25 µg/mL [%]
8 | Cc1ccc(Nc2c(Cl)c(Cl)c(C#N)c(Cl)c2C#N)cc1 [KC3] | 0
9 | N#Cc1c(Cl)c(Cl)c(C#N)c(Cl)c1Cl [STM-1] | 0
10 | Cc1cc(Nc2c(Cl)c(Cl)c(C#N)c(Cl)c2C#N)c(C)cc1Cl [KC6] | 0

Same assay, conditions: Zea mays, 168 h; 100 mg/L

Row | SMILES | pest or weed control at 100 µg/mL [%]
11 | Cc1ccc(Nc2c(Cl)c(Cl)c(C#N)c(Cl)c2C#N)cc1 [KC3] | 0
12 | N#Cc1c(Cl)c(Cl)c(C#N)c(Cl)c1Cl [STM-1] | 0
13 | Cc1cc(Nc2c(Cl)c(Cl)c(C#N)c(Cl)c2C#N)c(C)cc1Cl [KC6] | 0

Same assay, conditions: Zea mays, 168 h; 400 mg/L; read-out: the protectant activity (%) against corn rust

Row | SMILES | pest or weed control at 400 µg/mL [%]
14 | Cc1ccc(Nc2c(Cl)c(Cl)c(C#N)c(Cl)c2C#N)cc1 [KC3] | 0
15 | N#Cc1c(Cl)c(Cl)c(C#N)c(Cl)c1Cl [STM-1] | 0
16 | Cc1cc(Nc2c(Cl)c(Cl)c(C#N)c(Cl)c2C#N)c(C)cc1Cl [KC6] | 0

Same assay, conditions: Zea mays, 168 h; dose 400 mg/L; read-out: protectant activity against corn rust in vivo

Row | SMILES | pest or weed control at 400 µg/mL [%]
17 | Cc1ccc(Nc2c(Cl)c(Cl)c(C#N)c(Cl)c2C#N)cc1 [KC3] | 0
18 | N#Cc1c(Cl)c(Cl)c(C#N)c(Cl)c1Cl [STM-1] | 0
19 | Cc1cc(Nc2c(Cl)c(Cl)c(C#N)c(Cl)c2C#N)c(C)cc1Cl [KC6] | 0

Same assay, conditions: dose 100 mg/L

Row | SMILES | protectant activity against corn rust in vivo [%]
20 | N#Cc1c(Cl)c(Cl)c(Nc2cc(Cl)c(C(F)(F)F)cc2Cl)c(C#N)c1Cl [Compound B-52] | 100

Same assay, conditions: dose 400 mg/L

Row | SMILES | protectant activity against corn rust in vivo [%]
21 | N#Cc1c(Cl)c(Cl)c(Nc2cc(Cl)c(C(F)(F)F)cc2Cl)c(C#N)c1Cl [Compound B-52] | 100

System: rice blast
Assay: microbe, parasite or virus in culture
Format: cell-based
Details: Pyricularia oryzae, read-out: inhibition rate against rice blast

Row | SMILES | inhibition at 25 µg/mL [%] | inhibition at 0.3 µg/mL [%]
22 | Cc1ccc(Nc2c(Cl)c(Cl)c(C#N)c(Cl)c2C#N)cc1 [KC3] | 0 | 
23 | N#Cc1c(Cl)c(Cl)c(C#N)c(Cl)c1Cl [STM-1] | 0 | 
24 | Cc1cc(Nc2c(Cl)c(Cl)c(C#N)c(Cl)c2C#N)c(C)cc1Cl [KC6] |  | 0

Same assay, conditions: Pyricularia oryzae, read-out: the inhibition rate against rice blast (%) 0.03 mg/L

Row | SMILES | inhibition at 0.03 µg/mL [%]
25 | Cc1ccc(Nc2c(Cl)c(Cl)c(C#N)c(Cl)c2C#N)cc1 [KC3] | 0
26 | N#Cc1c(Cl)c(Cl)c(C#N)c(Cl)c1Cl [STM-1] | 0
27 | Cc1cc(Nc2c(Cl)c(Cl)c(C#N)c(Cl)c2C#N)c(C)cc1Cl [KC6] | 0

Same assay, conditions: Pyricularia oryzae, read-out: the inhibition rate against rice blast (%) 0.1 mg/L

Row | SMILES | inhibition at 0.1 µg/mL [%]
28 | Cc1ccc(Nc2c(Cl)c(Cl)c(C#N)c(Cl)c2C#N)cc1 [KC3] | 0
29 | N#Cc1c(Cl)c(Cl)c(C#N)c(Cl)c1Cl [STM-1] | 0
30 | Cc1cc(Nc2c(Cl)c(Cl)c(C#N)c(Cl)c2C#N)c(C)cc1Cl [KC6] | 0

Same assay, conditions: Pyricularia oryzae, read-out: the inhibition rate against rice blast (%) 0.3 mg/L

Row | SMILES | inhibition at 0.3 µg/mL [%]
31 | Cc1ccc(Nc2c(Cl)c(Cl)c(C#N)c(Cl)c2C#N)cc1 [KC3] | 0
32 | N#Cc1c(Cl)c(Cl)c(C#N)c(Cl)c1Cl [STM-1] | 0
33 | Cc1cc(Nc2c(Cl)c(Cl)c(C#N)c(Cl)c2C#N)c(C)cc1Cl [KC6] | 0

Same assay, conditions: Table 21, 0.03 mg/L

Row | SMILES | the inhibition rate against rice blast (%) 0.03 mg/L [%]
34 | N#Cc1c(Cl)c(Cl)c(Nc2cc(Cl)c(C(F)(F)F)cc2Cl)c(C#N)c1Cl [Compound B-52] | 100

Same assay, conditions: Table 21, 0.1 mg/L

Row | SMILES | the inhibition rate against rice blast (%) 0.1 mg/L [%]
35 | N#Cc1c(Cl)c(Cl)c(Nc2cc(Cl)c(C(F)(F)F)cc2Cl)c(C#N)c1Cl [Compound B-52] | 100

Same assay, conditions: Table 21, 0.3 mg/L

Row | SMILES | the inhibition rate against rice blast (%) 0.3 mg/L [%]
36 | N#Cc1c(Cl)c(Cl)c(Nc2cc(Cl)c(C(F)(F)F)cc2Cl)c(C#N)c1Cl [Compound B-52] | 100

System: cucumber downy mildew
Assay: Protectant activity in vivo (whole plant) against cucumber downy mildew
Details: Cucumis sativus, 168 h; 12.5 mg/L
Summary of the method: as §1

Row | SMILES | pest or weed control at 12.5 µg/mL [%]
37 | Cc1ccc(Nc2c(Cl)c(Cl)c(C#N)c(Cl)c2C#N)cc1 [KC3] | 0
38 | N#Cc1c(Cl)c(Cl)c(C#N)c(Cl)c1Cl [STM-1] | 0

Same assay, conditions: Cucumis sativus, 168 h; 25 mg/L; read-out: the protectant activity (%) against cucumber downy mildew

Row | SMILES | pest or weed control at 25 µg/mL [%]
39 | Cc1ccc(Nc2c(Cl)c(Cl)c(C#N)c(Cl)c2C#N)cc1 [KC3] | 0
40 | N#Cc1c(Cl)c(Cl)c(C#N)c(Cl)c1Cl [STM-1] | 0

Same assay, conditions: Cucumis sativus, 168 h; 50 mg/L; read-out: the protectant activity (%) against cucumber downy mildew

Row | SMILES | pest or weed control at 50 µg/mL [%]
41 | Cc1ccc(Nc2c(Cl)c(Cl)c(C#N)c(Cl)c2C#N)cc1 [KC3] | 0
42 | N#Cc1c(Cl)c(Cl)c(C#N)c(Cl)c1Cl [STM-1] | 0

Same assay, conditions: Cucumis sativus, 168 h; 100 mg/L; read-out: the protectant activity (%) against cucumber downy mildew

Row | SMILES | pest or weed control at 100 µg/mL [%]
43 | Cc1ccc(Nc2c(Cl)c(Cl)c(C#N)c(Cl)c2C#N)cc1 [KC3] | 0
44 | N#Cc1c(Cl)c(Cl)c(C#N)c(Cl)c1Cl [STM-1] | 0

Same assay, conditions: Cucumis sativus, 168 h; dose 400 mg/L

Row | SMILES | pest or weed control at 400 µg/mL [%]
45 | Cc1ccc(Nc2c(Cl)c(Cl)c(C#N)c(Cl)c2C#N)cc1 [KC3] | 0
46 | N#Cc1c(Cl)c(Cl)c(C#N)c(Cl)c1Cl [STM-1] | 0

System: cucumber gray mold
Assay: Activity in vitro (96-well, High Through Put): inhibition rate against cucumber gray mold
Format: cell-based
Details: 0.3 mg/L
Summary of the method: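 Compound in acetone, methanol or DMF was combined with pathogen suspension under sterile conditions and held in a constant-temperature box. After 24 hours germination or growth was scored by eye against an untreated control to give the inhibition rate.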

Row | SMILES | the inhibition rate against cucumber gray mold (%) | inhibition at 0.3 µg/mL [%]
47 | N#Cc1c(Cl)c(Cl)c(Nc2cc(Cl)c(C(F)(F)F)cc2Cl)c(C#N)c1Cl [Compound B-52] | 0 | 
48 | Cc1ccc(Nc2c(Cl)c(Cl)c(C#N)c(Cl)c2C#N)cc1 [KC3] |  | 0
49 | N#Cc1c(Cl)c(Cl)c(C#N)c(Cl)c1Cl [STM-1] |  | 0
50 | Cc1cc(Nc2c(Cl)c(Cl)c(C#N)c(Cl)c2C#N)c(C)cc1Cl [KC6] |  | 0

Same assay, conditions: 0.9 mg/L

Row | SMILES | the inhibition rate against cucumber gray mold (%)
51 | N#Cc1c(Cl)c(Cl)c(Nc2cc(Cl)c(C(F)(F)F)cc2Cl)c(C#N)c1Cl [Compound B-52] | 100

Same assay, conditions: 0.9 mg/L; read-out: the inhibition rate against cucumber gray mold (%)

Row | SMILES | inhibition at 0.9 µg/mL [%]
52 | Cc1ccc(Nc2c(Cl)c(Cl)c(C#N)c(Cl)c2C#N)cc1 [KC3] | 0
53 | N#Cc1c(Cl)c(Cl)c(C#N)c(Cl)c1Cl [STM-1] | 0
54 | Cc1cc(Nc2c(Cl)c(Cl)c(C#N)c(Cl)c2C#N)c(C)cc1Cl [KC6] | 0

Same assay, conditions: 2.8 mg/L

Row | SMILES | the inhibition rate against cucumber gray mold (%)
55 | N#Cc1c(Cl)c(Cl)c(Nc2cc(Cl)c(C(F)(F)F)cc2Cl)c(C#N)c1Cl [Compound B-52] | 100

Same assay, conditions: 2.8 mg/L; read-out: the inhibition rate against cucumber gray mold (%)

Row | SMILES | inhibition at 2.8 µg/mL [%]
56 | Cc1ccc(Nc2c(Cl)c(Cl)c(C#N)c(Cl)c2C#N)cc1 [KC3] | 0
57 | N#Cc1c(Cl)c(Cl)c(C#N)c(Cl)c1Cl [STM-1] | 0

Same assay, conditions: 8.3 mg/L

Row | SMILES | the inhibition rate against cucumber gray mold (%)
58 | N#Cc1c(Cl)c(Cl)c(Nc2cc(Cl)c(C(F)(F)F)cc2Cl)c(C#N)c1Cl [Compound B-52] | 100

Same assay, conditions: 8.3 mg/L; read-out: the inhibition rate against cucumber gray mold (%)

Row | SMILES | inhibition at 8.3 µg/mL [%]
59 | Cc1ccc(Nc2c(Cl)c(Cl)c(C#N)c(Cl)c2C#N)cc1 [KC3] | 0
60 | N#Cc1c(Cl)c(Cl)c(C#N)c(Cl)c1Cl [STM-1] | 0

Same assay, conditions: in vitro, dose 25 mg/L

Row | SMILES | inhibition at 25 µg/mL [%]
61 | Cc1ccc(Nc2c(Cl)c(Cl)c(C#N)c(Cl)c2C#N)cc1 [KC3] | 0
62 | N#Cc1c(Cl)c(Cl)c(C#N)c(Cl)c1Cl [STM-1] | 0
63 | Cc1cc(Nc2c(Cl)c(Cl)c(C#N)c(Cl)c2C#N)c(C)cc1Cl [KC6] | 0

System: wheat powdery mildew
Assay: Protectant activity in vivo (whole plant) against wheat powdery mildew
Details: Triticum aestivum, 168 h; dose 400 mg/L
Experimental: The method is as followed: The whole plant is used in this test. The compound is dissolved in a proper solvent to get mother solution. The proper solvent is selected from acetone, methanol, DMF and so on according to their dissolving capability to the sample. The volume rate of solvent and testing solution (v/v) is equal to or less than 5%. The mother solution is diluted with water containing 0.1% tween-80 to get the testing solution whose concentration is designed. The testing solution is sprayed to the host plant by a special plant sprayer. The plant is inoculated with fungus after 24 hours. According to the infecting characteristic of fungus, the plant is stored in a humidity chamber and then transferred into greenhouse after infection is finished. And the other plants are placed in greenhouse directly. The activity of compound is obtained by eyeballing after 7 days in common.

Row | SMILES | pest or weed control at 400 µg/mL [%]
64 | Cc1ccc(Nc2c(Cl)c(Cl)c(C#N)c(Cl)c2C#N)cc1 [KC3] | 0
65 | N#Cc1c(Cl)c(Cl)c(C#N)c(Cl)c1Cl [STM-1] | 0
66 | Cc1cc(Nc2c(Cl)c(Cl)c(C#N)c(Cl)c2C#N)c(C)cc1Cl [KC6] | 0

Same assay, conditions: dose 400 mg/L

Row | SMILES | protectant activity against wheat powdery mildew in vivo [%]
67 | N#Cc1c(Cl)c(Cl)c(Nc2cc(Cl)c(C(F)(F)F)cc2Cl)c(C#N)c1Cl [Compound B-52] | 100
